{"source": "patent US12016358B2", "about": "“Composition comprising taste modulation compounds, their use and foodstuff comprising them” (V. MANE FILS, priority 2015, dated 2024)", "type_in_all_cases": "in vivo, human", "key": {"[1]": {"test_system": "Saltiness and Salivation (cheese sauce)", "assay": "Various levels of pantolactone (D-isomer) in cheese sauce, expert tasters", "conditions": "for Saltiness score: 1 = low up to 5 = high, Control 1", "from_the_text": "Five expert tasters consumed the Control and then samples comprising various levels of pantolactone (D-isomer). It was concluded that pantolactone (D-isomer) is clean tasting up to 10-12 ppm in cheese sauce."}, "[2]": {"test_system": "umami taste perception (chicken broth)", "assay": "Chicken broth, expert tasters", "conditions": "Campbell's chicken noodle soup broth 50:50 with water; 5 ppm (each); vs Control", "from_the_text": "Five expert tasters consumed the Control (chicken broth) and then chicken broth with either 5 ppm of pantolactone (D-isomer) or 5 ppm of mevalonolactone."}, "[3]": {"test_system": "Sweetness of Rebaudioside-A", "assay": "Sweetness of Rebaudioside-A water solutions, expert tasters", "from_the_text": "The product containing either 25 or 250 ppm Reb-A without pantolactone (Control) is compared with the product containing pantolactone (D-isomer) added at either 5, 10 or 20 ppm as noted in Table 6."}, "[4]": {"test_system": "Heat Perception of Chili Extract Paste", "assay": "Heat perception of chili extract paste in water, expert tasters", "conditions": "5 ppm", "method": "Pantolactone (D-isomer) and mevalonolactone were added at 5 ppm to chili extract paste and dissolved in water.\nThe taste perception of the product without the flavour modifying composition (Control) was compared with the same product (Test) containing the flavour modifying composition. Four expert tasters consumed the chili extract paste solution alone and then the tasters consumed one of two different dilution formats (medium or hot) of the chili extract paste solution containing 5 ppm of either pantolactone (D-isomer) or mevalonolactone."}, "[5]": {"test_system": "Sweetness and Bitterness of Milk Chocolate", "assay": "Milk chocolate, expert testers", "conditions": "5 ppm, vs Control", "from_the_text": "The taste perception of the product without the addition of flavour modification compostion (Control) was compared with the same product (Test) containing the flavour modifying composition."}, "[6]": {"test_system": "Complexity and Body of Wine", "assay": "Wine, expert tasters", "conditions": "5 ppm (each); vs Control", "method": "Pantolactone (D-isomer) and mevalonolactone were added individually or as a mixture at 5 ppm each to wine."}, "[7]": {"test_system": "Flavour Balance of a Tomato-Based Condiment", "assay": "Ketchup samples, expert panel", "conditions": "5.4 ppm; vs Control (0.1% ethyl alcohol)", "method": "Ketchup containing sucrose as the base sweetener in two different formulations and ketchup containing sucralose as the base sweetener in a third formulation were evaluated without (control) and with addition of pantolactone added at 5.4 ppm (test)."}, "[8]": {"test_system": "Salt Taste in a Low Sodium Soy Sauce", "assay": "Low sodium soy sauce, expert tasters", "conditions": "5 ppm solution, 1 ml (0.005 mg) between two 1 g soy sauce portions", "method": "Low sodium soy sauce (Kikkoman's®) was evaluated without and with a water based solution of 2-acetyl-butyrolactone and 4-hydroxy-6-methyl-2-pyrone at 5 ppm concentration. Five expert tasters consumed 1 g low sodium soy sauce alone, then 1 ml of flavour modifying solution, and then again 1 g of the low sodium soy sauce."}, "[9]": {"test_system": "Saltiness of Cheese Sauce", "assay": "Cheese sauce (Ragu), expert tasters", "conditions": "5 ppm solution, 1 ml (0.005 mg) between two 20 g portions", "method": "Cheese sauce (Ragu®) was evaluated without and with a water based solution of 2-acetyl-butyrolactone and 4,6-dimethyl-alpha-pyrone at 5 ppm concentration. Five expert tasters consumed 20 g cheese sauce alone, then 1 ml of flavour modifying solution, and then again 20 g of cheese sauce."}, "[10]": {"test_system": "Saltiness and Salivation (cheese sauce)", "assay": "Mixtures of pantolactone, m-cresol and 3-n-propylphenol in cheese sauce, expert tasters", "from_the_text": "A number of combinations of Pantolactone, m-cresol and 3-n-propylphenol are noted in Table 15. Five expert tasters consumed the Control and then each of the treatments and recorded a score."}, "[11]": {"test_system": "Salt Taste in a Chicken Powder Solution", "assay": "Saltiness of chicken powder solution, DFR panel", "conditions": "chicken powder and sodium chloride in water, 5 ppm", "method": "Panelists evaluated all samples in fully enclosed partitioned booths under white lights. Fizz NETWORK Software Acquisitions Biosystemes 2.478 was used for data collection. Each panelist was provided with filtered water for rinsing and instructed to follow a strict rinsing procedure. The rinsing protocol required panelists to rinse prior to tasting the first sample, and after tasting each sample.\nSamples were evaluated using a Deviation from Reference (DFR) method. Panelists were given an identified reference labeled “000” and a coded sample simultaneously. The coded sample was either a blind, coded reference or a coded test sample. The panelists were instructed to taste the reference (000) first and mentally evaluate its SALTINESS intensity. Panelists were then instructed to taste and rate the coded sample's intensity for SALTINESS compared to the identified reference. Sample sets were given to the panelists in balanced, randomized order. A one-minute wait period was enforced between sample sets to reduce flavour carryover.\nPanelists rated SALTINESS intensity difference from the reference using a 9-pt scale anchored with the following descriptors: (−4) Extremely less than Reference, (0) Same as Reference, (4) Extremely more than Reference. Number values were NOT shown on the scale. Statistical mean differences were calculated using one-way ANOVA using Fizz Calculations Biosystemes 2.478. […]"}, "[12]": {"conditions": "water, 25 ppm Reb-A, 20 ppm pantolactone (D-isomer)"}}, "note": "“Also recorded” adds a separate entry of the source. Marks after values point to notes of the source that are not given here.", "data": [{"smiles": "CC1(C)COC(=O)C1O", "note": "(single isomer, unassigned) [pantolactone (D-isomer)]", "values": [{"measurement": "Salivation effect", "setting": "[1]; 0.54 ppm", "value": "no"}, {"measurement": "Saltiness score", "setting": "[1]; 0.54 ppm", "value": 1.8}, {"measurement": "Salivation effect", "setting": "[1]; 2.7 ppm", "value": "yes"}, {"measurement": "Saltiness score", "setting": "[1]; 2.7 ppm", "value": 2.2}, {"measurement": "Salivation effect", "setting": "[1]; 5.4 ppm", "value": "yes"}, {"measurement": "Saltiness score", "setting": "[1]; 5.4 ppm", "value": 2.5}, {"measurement": "Salivation effect", "setting": "[1]; 10.8 ppm", "value": "yes"}, {"measurement": "Saltiness score", "setting": "[1]; 10.8 ppm", "value": 3}, {"measurement": "Salivation effect", "setting": "[1]; 27 ppm", "value": "yes"}, {"measurement": "Saltiness score", "setting": "[1]; 27 ppm", "value": "3 **"}, {"measurement": "Observations", "setting": "[2]", "value": "amplify umami taste perception; also recorded: Fatty from chicken fat; also recorded: Enhanced umami"}, {"measurement": "sweetness vs control sample", "setting": "[3]; increasing levels added to 25 ppm Reb-A water solutions, up to 20 ppm", "value": "more sweetness than the control sample"}, {"measurement": "perception of sweetness", "setting": "[3]; increasing levels added to 250 ppm Reb-A water solutions", "value": "cleaner upfront perception of sweetness with less lingering taste"}, {"measurement": "Taster Observations Taster 1", "setting": "[3]; [12]", "value": "second sweetest"}, {"measurement": "Taster Observations Taster 2", "setting": "[3]; [12]", "value": "sweet like 10 ppm"}, {"measurement": "perception of heat (conclusion)", "setting": "[4]", "value": "lower perception of heat and less lingering of heat"}, {"measurement": "sweetness and bitterness perception, Hershey's Bliss Chocolate", "setting": "[5]", "value": "perceived sweeter and less bitter"}, {"measurement": "perception of complexity and body, Box red wine - Vella Burgundy California Table Wine", "setting": "[6]", "value": "more complex and having more body"}, {"measurement": "Observations Ketchup sucralose-based, Source #3", "setting": "[7]", "value": "improved dramatically in all elements"}, {"measurement": "Observations Ketchup sucrose-based, Source #1", "setting": "[7]", "value": "enhanced in a balanced way"}, {"measurement": "Observations Ketchup sucrose-based, Source #2", "setting": "[7]", "value": "taste enhancement but not in a balanced way"}]}, {"smiles": "CC(=O)C1CCOC1=O", "note": "(stereo not shown) [2-acetyl-butyrolactone]", "values": [{"measurement": "Kikkoman's Low Sodium Soy Sauce: taste observation", "setting": "[8]", "value": "amplified saltiness; also recorded: slightly amplified saltiness"}, {"measurement": "Cheese Sauce: taste observation", "setting": "[9]", "value": "amplified saltiness; also recorded: Slightly amplified umami"}]}, {"smiles": "CCCc1cccc(O)c1", "note": "[3-n-propylphenol]", "values": [{"measurement": "conclusion on blends / components", "setting": "[10]", "value": "effective, but exhibits flavour aroma character at slightly elevated levels"}]}, {"smiles": "Cc1cc(C)oc(=O)c1", "note": "[4,6-dimethyl-alpha-pyrone]", "values": [{"measurement": "Cheese Sauce: taste observation", "setting": "[9]", "value": "amplified saltiness; also recorded: Slightly amplified umami"}]}, {"smiles": "Cc1cc(O)cc(=O)o1", "note": "[4-hydroxy-6-methyl-2-pyrone]", "values": [{"measurement": "Kikkoman's Low Sodium Soy Sauce: taste observation", "setting": "[8]", "value": "amplified saltiness"}]}, {"smiles": "C[C@@]1(O)CCOC(=O)C1", "note": "[mevalonolactone]", "values": [{"measurement": "Observations", "setting": "[2]", "value": "amplify umami taste perception; also recorded: Enhanced umami; also recorded: Fatty from chicken fat"}, {"measurement": "perception of heat (conclusion)", "setting": "[4]", "value": "enhanced perception of fruitiness but no change in the perception of heat"}, {"measurement": "perception of complexity and body, Box red wine - Vella Burgundy California Table Wine", "setting": "[6]", "value": "more complex and having more body"}]}, {"smiles": "CC1(C)COC(=O)C1O", "note": "(stereo not shown) [pantolactone, dihydro-3-hydroxy-4,4-dimethyl-2(3H)-furanone]", "values": [{"measurement": "difference in SALTINESS between Control and Variant", "setting": "[11]; Control presented as the reference", "value": "significant difference"}, {"measurement": "difference in SALTINESS between Control and Variant", "setting": "[11]; Variant presented as the reference", "value": "not a significant difference in SALTINESS"}]}]}
